Assays:
ACKR3 = ACKR3 (Homo sapiens, UniProt P25106); assay: ACKR3 β-arrestin recruitment assay (PathHunter, β-galactosidase complementation); type: cell-based; conditions: for EC50: stable human ACKR3-β-arrestin-2-CHO cells, mean ± SEM, at least two independent experiments in duplicate; for Emax: read-out: ACKR3 β-arrestin % CXCL12 Emax ± SEM
Method: (§1) Compounds were evaluated for agonist activity using a β-arrestin recruitment assay based on β-galactosidase complementation (PathHunter, DiscoverX). Stable human ACKR3-β-arrestin-2-CHO cells (DiscoverX) were plated into 96-well white-walled assay plates at 15,000 cells/well in Cell Plating Reagent 2 (DiscoveRx) and incubated at 37° C., 5% CO2 overnight. The next day, test compounds were prepared at 10× concentration in DPBS/1% DMSO and 10 μL was added to the cells. CXCL-12 was included as a positive agonist control. Following a 1.5 hr incubation at 37° C., 55 μL of detection reagent (prepared according to the manufacturer's specifications) was added to each well. The plate was incubated at room temperature for 1 hr, after which luminescence was measured at 1 sec/well using an EnSpire multimode plate reader (PerkinElmer). Relative luminescence units (RLU) were plotted against the log of compound concentration and data were fit to a three-parameter logistic curve to generate EC50 values (GraphPad Prism). EC50 and % Emax values are reported as means±SEM and are the result of at least two independent experiments performed in duplicate. The CXCR4 assay was run similarly except that human CXCR4-C2Cl2 cells (DiscoverX) were plated at 20,000 cells/well in Cell Plating Reagent 9. The next day, the media was removed and cells were incubated with Cell Plating Reagent 4 for 3 hrs, after which the assay was conducted as described above.

human CXCR4 = biological target: T1, human CXCR4 (Homo sapiens, UniProt P61073); assay: CXCR4 β-arrestin recruitment assay (PathHunter); type: cell-based; conditions: human CXCR4-C2Cl2 cells, relative to CXCL-12
T1 construct: host or cells: C2C12
Method: as §1

Chain of ACKR3 (P25106 whole entry): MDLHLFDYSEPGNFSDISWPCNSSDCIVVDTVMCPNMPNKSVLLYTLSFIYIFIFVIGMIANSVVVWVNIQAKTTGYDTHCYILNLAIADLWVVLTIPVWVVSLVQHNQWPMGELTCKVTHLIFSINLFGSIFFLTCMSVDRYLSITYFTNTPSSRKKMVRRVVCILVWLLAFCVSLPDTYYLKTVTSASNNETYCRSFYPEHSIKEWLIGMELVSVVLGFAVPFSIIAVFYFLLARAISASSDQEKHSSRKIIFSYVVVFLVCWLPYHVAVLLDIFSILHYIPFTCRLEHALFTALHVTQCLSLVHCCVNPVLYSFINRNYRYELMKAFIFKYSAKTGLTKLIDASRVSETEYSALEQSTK
T1 sequence (P61073 whole entry): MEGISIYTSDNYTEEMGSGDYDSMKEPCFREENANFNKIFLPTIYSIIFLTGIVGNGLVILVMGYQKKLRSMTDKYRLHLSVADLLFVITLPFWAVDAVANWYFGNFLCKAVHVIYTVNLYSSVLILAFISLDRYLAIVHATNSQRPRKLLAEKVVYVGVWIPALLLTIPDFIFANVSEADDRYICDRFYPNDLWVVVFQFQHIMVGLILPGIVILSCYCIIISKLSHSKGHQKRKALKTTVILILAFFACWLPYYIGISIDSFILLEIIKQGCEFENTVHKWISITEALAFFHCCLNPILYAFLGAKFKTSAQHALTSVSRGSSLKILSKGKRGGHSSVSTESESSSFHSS

SMILES | EC50 (ACKR3) | CXCR4 β-arrestin % CXCL-12Emax (n = 2) (human CXCR4) | Emax (ACKR3)
C/C=C1/CN(Cc2ccc(OC)cc2)CC[C@H]1C(O)c1cc2cc(C#N)ccc2n1S(=O)(=O)c1ccccc1 (stereo partly drawn) [WW-70, 2-{[(3E, 4R)-(3-ethylidene-1-(4-methoxybenzyl)piperidin-4-yl)](hydroxy)methyl}-1-(phenylsulfonyl)-1H-indole-5-carbonitrile] | > 10 µM | −2% | –
C/C=C1/CN(CCCCCC(=O)OC)CC[C@H]1C(=O)c1cc2ccccc2[nH]1 [WW-71, Methyl 6-[(3E,4R)-3-ethylidene-4-(1H-indol-2-ylcarbonyl)piperidin-1-yl]hexanoate] | > 10 µM | 4% | –
C/C=C1/CN(CCCCOc2ccccc2)CC[C@H]1C(=O)c1cc2ccccc2[nH]1 [WW-72, (3E,4R)-(3-ethylidene-1-(4-phenoxybutyl)piperidin-4-yl)(1H-indol-2-yl)methanone] | 3.78 ± 0.98 µM | 4% | 145 ± 16%
C/C=C1/CN(CCCCC)CC[C@H]1C(=O)c1cc2cc(-c3ccc(F)cc3)ccc2[nH]1 [WW-73, [(3E,4R)-3-ethylidene-1-pentylpiperidin-4-yl][5-(4-fluorophenyl)-1H-indol-2-yl]methanone] | > 10 µM | 9% | –
C/C=C1/CN(CCCCC)CC[C@H]1C(O)c1cc2ccccc2n1S(=O)(=O)c1ccccc1 (stereo partly drawn) [WW-74] | 0.177 ± 0.01 µM | 3% | 172 ± 6%

Source: patent US20240059688A1, “CONOLIDINE ANALOGUES AS SELECTIVE ACKR3 MODULATORS FOR THE TREATMENT OF CANCER” (Luxembourg Institute of Health (LIH), priority 2020, published 2024)
